Like-named read-outs stand apart in the source and are kept apart here.

In assay [1] the test system is IL-23-stimulated Kit225 T cells with STAT-dependent luciferase reporter. Kind of assay: Kit225 T cell assay, STAT-dependent luciferase reporter, IL-23 stimulated. To be noted: read-out: IL-23 Kit225 Reporter, LE (IC50). The assay is classed as cell-based, human. As for the experimental part:
(§1) Kit225 T cells with a stably-integrated STAT-dependent luciferase reporter were plated in RPMI (GIBCO) containing 10% heat-inactivated FBS (GIBCO) and 100 U/mL PenStrep (GIBCO). The cells were then stimulated with either 20 ng/mL human recombinant IL-23 or 200 U/mL human recombinant IFNα (PBL InterferonSource) for 5-6 hours. Luciferase expression was measured using the STEADY-GLO® Luciferase Assay System (PROMEGA®) according to the manufacturer's instructions.
Background: A reporter such as luciferase makes a cellular process visible.

Assay [2] concerns IFNα-stimulated Kit225 T cells with STAT-dependent luciferase reporter. Kind of assay: Kit225 T cell assay, STAT-dependent luciferase reporter, IFNα stimulated. To be noted: 5-6 hours, read-out: IFNa Kit225 Reporter, LE (IC50). The class given is cell-based, human. The method, then:
as §1

The mark [3] stands for this setting: 20 ng/mL human recombinant IL-23, 5-6 hours.
Where [4] appears, read: 200 U/mL human recombinant IFNα.
[5] abbreviates: Homo sapiens, KIT225, 20 ng/mL human recombinant IL-23, 5-6 hours.
[6] abbreviates: Homo sapiens, KIT225, 200 U/mL human recombinant IFNα.

For `CNc1cc(Nc2cccn(-c3cc(C)on3)c2=O)nn2c(C(=O)NC3CCC3)cnc12` [Example 157], the results for the IC50 in assay [1] (setting [3]) and in assay [2] (setting [4]) were 30 nM and 20 nM, respectively.

For `CNc1cc(Nc2cccn(-c3ccc(C)nn3)c2=O)nn2c(C(=O)NC(C)CC(C)C)cnc12` (stereo not shown) [Example 235], the IC50 is 560 nM in assay [1] (setting [3]) and 910 nM in assay [2] (setting [4]).

As for `CNc1cc(Nc2cccn(-c3ccc(C#N)cc3)c2=O)nn2c(C(=O)NC3CC3)cnc12` [Example 2, 6-((1-(4-Cyanophenyl)-2-oxo-1,2-dihydropyridin-3-yl)amino)-N-cyclopropyl-8-(methylamino)imidazo[1,2-b]pyridazine-3-carboxamide], the figures for the IC50 in assay [1] (setting [5]) and in assay [2] (setting [6]) were 160 nM and 90 nM, respectively.

As to `CNc1cc(Nc2cccn(-c3ccccc3)c2=O)nn2c(C(=O)NCc3nccs3)cnc12` [Example 182], the results for the IC50 in assay [1] (setting [3]) and in assay [2] (setting [4]) were 220 nM and 270 nM, respectively.

For `CNc1cc(Nc2cccn(-c3ccccc3)c2=O)nn2c(C(=O)NC3(C#N)CCC3)cnc12` [Example 148], the IC50 in assay [1] (setting [3]) stood at 120 nM; in assay [2] (setting [4]) it was 280 nM.

Turning to `CNc1cc(Nc2cccn(-c3nccc(C(F)(F)F)n3)c2=O)nn2c(C(=O)NC3CCC3)cnc12` [Example 5, N-Cyclobutyl-8-(methylamino)-6-((2-oxo-1-(4-(trifluoromethyl)pyrimidin-2-yl)-1,2-dihydropyridin-3-yl)amino)imidazo[1,2-b]pyridazine-3-carboxamide], the IC50 in assay [1] (setting [5]) and in assay [2] (setting [6]) was 150 nM each time.

As to `CNc1cc(Nc2cccn(C3CCN(C(=O)C4CCCO4)CC3)c2=O)nn2c(C(=O)NC3CC3)cnc12` (stereo not shown) [Example 247], the results for the IC50 in assay [1] (setting [5]) and in assay [2] (setting [6]) were 420 nM and 350 nM, respectively.

In the case of `CNc1cc(Nc2cccn(C(C)(C)C)c2=O)nn2c(C(=O)NC3CC3)cnc12` [Example 218], the IC50 came to 190 nM in assay [1] (setting [3]) and 130 nM in assay [2] (setting [4]).

For the compound `CNc1cc(Nc2cccn(C3CCN(C(=O)C4(C(F)(F)F)CC4)CC3)c2=O)nn2c(C(=O)NC3CC3)cnc12` [Example 246], the IC50 in assay [1] (setting [5]) was found to be 200 nM; in assay [2] (setting [6]) it was 220 nM.

On to `CNc1cc(Nc2cc(F)cn(-c3ccccn3)c2=O)nn2c(C(=O)NC3CC3)cnc12` [Example 149], for which the values for the IC50 in assay [1] (setting [3]) and in assay [2] (setting [4]) were 70 nM and 60 nM, respectively.

In the case of `CNc1cc(Nc2cccn(-c3ccc(C#N)cc3)c2=O)nn2c(C(=O)NC3(C#N)CC3)cnc12` [Example 13], the IC50 is 150 nM in assay [1] (setting [3]) and 230 nM in assay [2] (setting [4]).

For the compound `CNc1cc(Nc2cccn(-c3ccc(C(F)F)cc3)c2=O)nn2c(C(=O)NCC(C)(CO)CO)cnc12` [Example 19], the IC50 in assay [1] (setting [3]) turned out to be 330 nM; in assay [2] (setting [4]), 400 nM.

In the case of `CNc1cc(Nc2cccn(C)c2=O)nn2c(C(=O)NC(C)C)cnc12` [Example 209], the figures for the IC50 in assay [1] (setting [3]) and in assay [2] (setting [4]) were 180 nM and 330 nM, respectively.

Take `CNc1cc(Nc2cccn(C3CC3)c2=O)nn2c(C(=O)NC3CC3)cnc12` [Example 44]: the IC50 in assay [1] (setting [3]) is 380 nM; in assay [2] (setting [4]) it was 130 nM.

Regarding `CNc1cc(Nc2cccn(-c3nnc(C)s3)c2=O)nn2c(C(=O)N[C@@H]3C[C@@H]3F)cnc12` [Example 195], the IC50 in assay [1] (setting [3]) was 110 nM; in assay [2] (setting [4]), 60 nM.

In the case of `CNc1cc(Nc2cccn(-c3ccn(C)n3)c2=O)nn2c(C(=O)NC3CC3)cnc12` [Example 158], the IC50 in assay [1] (setting [3]) turned out to be 130 nM; in assay [2] (setting [4]) it was 100 nM.

As to `CNc1cc(Nc2cccn(C3CCOC3)c2=O)nn2c(C(=O)NC3CCC3)cnc12` (stereo not shown) [Example 221], the IC50 in assay [1] (setting [3]) was found to be 500 nM; in assay [2] (setting [4]), 140 nM.

`CNc1cc(Nc2cccn(-c3ccc(C(F)F)cc3)c2=O)nn2c(C(=O)NC3CC3)cnc12` [Example 18]: the IC50 was found to be 480 nM in assay [1] (setting [3]) and 150 nM in assay [2] (setting [4]).

For the compound `O=C(N[C@H]1C[C@@H]1F)c1cnc2c3c(c(Nc4cccn(-c5ccccn5)c4=O)nn12)OCCN3` [Example 241], the IC50 in assay [1] (setting [5]) came out at 140 nM; in assay [2] (setting [6]), 90 nM.

As for `CCC(C)NC(=O)c1cnc2c(NC)cc(Nc3cncn(-c4ccccn4)c3=O)nn12` (single isomer, unassigned) [Example 76], the values for the IC50 in assay [1] (setting [3]) and in assay [2] (setting [4]) were 410 nM and 560 nM, respectively.

With `CNc1cc(Nc2cccn(-c3cccc(C(C)(C)O)n3)c2=O)nn2c(C(=O)N[C@@H]3C[C@@H]3F)cnc12` [Example 82], the IC50 in assay [1] (setting [3]) and in assay [2] (setting [4]) was 40 nM in each case.

For the compound `CNc1cc(Nc2cccn(-c3cnn(C)c3)c2=O)nn2c(C(=O)NC3CC3)cnc12` [Example 203], the IC50 in assay [1] (setting [3]) came to 190 nM; in assay [2] (setting [4]), 200 nM.

Take `CNc1cc(Nc2cccn(C)c2=O)nn2c(C(=O)NC(C)C#N)cnc12` (stereo not shown) [Example 129]: the results for the IC50 in assay [1] (setting [3]) and in assay [2] (setting [4]) were 440 nM and 160 nM, respectively.

Consider `CNc1cc(Nc2cccn(-c3ccn(C4CC4)n3)c2=O)nn2c(C(=O)NC3CCC3)cnc12` [Example 166], for which the IC50 came out at 290 nM in assay [1] (setting [3]) and 50 nM in assay [2] (setting [4]).

Regarding `CNc1cc(Nc2cccn(-c3ccn(C4CC4)n3)c2=O)nn2c(C(=O)NC3CC3)cnc12` [Example 165], the concentration for half-maximal inhibition (IC50) was 430 nM in assay [1] (setting [3]) and 130 nM in assay [2] (setting [4]).

As for `CCNC(=O)c1cnc2c(NC)cc(Nc3cccn(-c4ccccn4)c3=O)nn12` [Example 66], the IC50 in assay [1] (setting [3]) worked out at 90 nM; in assay [2] (setting [4]) it was 180 nM.

As to `CNc1cc(Nc2cc(C)cn(-c3ccc(C)nn3)c2=O)nn2c(C(=O)NC3CC3)cnc12` [Example 91], the IC50 in assay [1] (setting [3]) turned out to be 230 nM; in assay [2] (setting [4]) it was 150 nM.

Take `CNc1cc(Nc2cccn(-c3ccc(CO)cn3)c2=O)nn2c(C(=O)NC3CC3)cnc12` [compound 253]: the half-inhibitory concentration (IC50) in assay [1] (setting [5]) worked out at 180 nM; in assay [2] (setting [6]), 450 nM.

Regarding `CNc1cc(Nc2cccn(-c3ccc(C4CC4)nn3)c2=O)nn2c(C(=O)N[C@@H]3C[C@@H]3F)cnc12` [Example 98], the IC50 in assay [1] (setting [3]) stood at 40 nM; in assay [2] (setting [4]) it was 20 nM.

As to `CCCCn1cc(Cl)cc(Nc2cc(NC)c3ncc(C(=O)NC4CC4)n3n2)c1=O` [Example 244], the IC50 in assay [1] (setting [5]) is 290 nM; in assay [2] (setting [6]) it was 120 nM.

Consider `CNc1cc(Nc2cccn(-c3ncc(F)cn3)c2=O)nn2c(C(=O)NC3CC3)cnc12` [Example 171], for which the IC50 in assay [1] (setting [3]) came to 210 nM; in assay [2] (setting [4]) it was 140 nM.

Turning to `CNc1cc(Nc2cccn(-c3ccc(C)nn3)c2=O)nn2c(C(=O)NC(C)COC)cnc12` (stereo not shown) [Example 234], the IC50 came to 290 nM in assay [1] (setting [3]) and 140 nM in assay [2] (setting [4]).

Turning to `CNc1cc(Nc2cccn(-c3ccc(C(F)(F)F)cc3)c2=O)nn2c(C(=O)NC3(C#N)CC3)cnc12` [Example 137], the IC50 in assay [1] (setting [3]) was 290 nM; in assay [2] (setting [4]), 140 nM.

Consider `CNc1cc(Nc2cncn(-c3ccc(C)nn3)c2=O)nn2c(C(=O)N[C@@H]3C[C@@H]3F)cnc12` [Example 80], for which the IC50 in assay [1] (setting [3]) came out at 1740 nM; in assay [2] (setting [4]) it was 330 nM.

With `CNc1cc(Nc2cccn(-c3ncccc3F)c2=O)nn2c(C(=O)N[C@@H]3C[C@@H]3F)cnc12` [Example 42], the IC50 was found to be 50 nM in assay [1] (setting [3]) and 20 nM in assay [2] (setting [4]).

In the case of `CNc1cc(Nc2cccn(-c3ccc(N4CCOCC4)cc3)c2=O)nn2c(C(=O)NC3CC3F)cnc12` (stereo not shown) [Example 147], the figures for the IC50 in assay [1] (setting [3]) and in assay [2] (setting [4]) were 30 nM and 20 nM, respectively.

As for `CNc1cc(Nc2cccn(-c3ncccn3)c2=O)nn2c(C(=O)NC3CCC3)cnc12` [Example 52], the IC50 in assay [1] (setting [3]) was found to be 210 nM; in assay [2] (setting [4]), 130 nM.

Regarding `CNc1cc(Nc2cccn(-c3ncc(F)cn3)c2=O)nn2c(C(=O)N[C@@H]3C[C@@H]3F)cnc12` [Example 174], the IC50 in assay [1] (setting [3]) worked out at 50 nM; in assay [2] (setting [4]), 40 nM.

Regarding `CNc1cc(Nc2cccn(-c3ccc(F)nc3)c2=O)nn2c(C(=O)NC3CC3)cnc12` [Example 17], the results for the IC50 in assay [1] (setting [3]) and in assay [2] (setting [4]) were 240 nM and 180 nM, respectively.

With `CNc1cc(Nc2cccn(-c3ccc(C(C)O)cc3)c2=O)nn2c(C(=O)N[C@@H]3C[C@@H]3F)cnc12` (stereo partly shown) [Example 141], the IC50 was determined as 160 nM in assay [1] (setting [3]) and 180 nM in assay [2] (setting [4]).

As for `CCC(CC)NC(=O)c1cnc2c(NC)cc(Nc3cccn(-c4ccc(C)nn4)c3=O)nn12` [Example 233], the figures for the IC50 in assay [1] (setting [3]) and in assay [2] (setting [4]) were 720 nM and 280 nM, respectively.

For `CNc1cc(Nc2ccnn(-c3cccc(C#N)c3)c2=O)nn2c(C(=O)N[C@@H]3C[C@@H]3F)cnc12` [Example 196], the IC50 in assay [1] (setting [3]) came out at 160 nM; in assay [2] (setting [4]), 40 nM.

As to `CNc1cc(Nc2ccnn(-c3ccccc3)c2=O)nn2c(C(=O)NC3CCC3)cnc12` [Example 8, N-Cyclobutyl-8-(methylamino)-6-((3-oxo-2-phenyl-2,3-dihydropyridazin-4-yl)amino)imidazo[1,2-b]pyridazine-3-carboxamide], the IC50 was determined as 670 nM in assay [1] (setting [5]) and 380 nM in assay [2] (setting [6]).

With `CNc1cc(Nc2cccn(-c3cccc(F)n3)c2=O)nn2c(C(=O)NC3CC3)cnc12` [Example 144], the results for the IC50 in assay [1] (setting [3]) and in assay [2] (setting [4]) were 140 nM and 80 nM, respectively.

In the case of `CNc1cc(Nc2cc(F)cn(C)c2=O)nn2c(C(=O)NCC(C)(C)CO)cnc12` [Example 24], the IC50 was 150 nM in assay [1] (setting [3]) and 40 nM in assay [2] (setting [4]).

Turning to `CNc1cc(Nc2cccn(-c3ccc(F)nc3)c2=O)nn2c(C(=O)NC3(C#N)CC3)cnc12` [Example 28], the results for the IC50 in assay [1] (setting [3]) and in assay [2] (setting [4]) were 600 nM and 300 nM, respectively.

With `CNc1cc(Nc2cccn(-c3ccc(F)cn3)c2=O)nn2c(C(=O)NC3CC3)cnc12` [Example 36], the IC50 in assay [1] (setting [3]) and in assay [2] (setting [4]) was 100 nM throughout.

As usually defined, the IC50 is the point on the concentration scale where inhibition reaches its midpoint.

For the origin of these results see patent publication US10273237B2, “Imidazopyridazine compounds useful as modulators of IL-12, IL-23 and/or IFN-α responses” (BRISTOL-MYERS SQUIBB COMPANY, priority 2013, dated 2019).
